Data published in EP4442727A1, “EPOXY RESIN COMPOSITIONS COMPRISING A LEWIS ACID” (priority 2023, dated 2024).
Read-outs that look alike come from different tables or passages of the source.

What was measured:
[1] = assay type: physicochemical; details: for Viscosity, Initial: Epoxy Composition 3 (Table 8) with the named Lewis Acid Additive, before storage; for 7d (increase in viscosity in %) / Viscosity, 7d / 15 d (increase in viscosity in %) / Viscosity, 15 d: Epoxy Composition 3 with the named Lewis Acid Additive; for 7d (increase in viscosity in %) / Viscosity, 7d: stored at 50°C for 7 days; for 15 d (increase in viscosity in %) / Viscosity, 15 d: stored at 50°C for 15 days
Protocol: The A1 value gave the viscosity in Pascal seconds.
The epoxy resin was put in a Speedmixer cup (Hauschild Engineering), the thixotrope and dicyandiamide were added, and the raw materials mixed at 3500 s^-1 for 5 min. The accelerator and the additive were then weighed into the resin formulation and the mixture again speedmixed at 3500 s^-1 for 15 s. Formulations were stored at 50 °C. The complex viscosity was determined after 7 d and 15 d. Table 9. Viscosity of adhesive formulations stored at 50°C for 7 and 15 days in Pa*s.

[2] = cited from earlier work

Compound: CCCCCCCCCCCCCCCCCC(=O)[O-].[Al+3].[OH-].[OH-] [AMS, Aluminum monostearate]
- Viscosity, Initial [1]: 53 Pa*s
- 7d (increase in viscosity in %) [1]: 245%
- Viscosity, 7d [1]: 130 Pa*s
- 15 d (increase in viscosity in %) [1]: 337%
- Viscosity, 15 d [1]: 179 Pa*s

Compound: [Cl-].[Cl-].[Zn+2] [ZnCl2, Zinc chloride]
- Viscosity, Initial [1]: 54 Pa*s
- 7d (increase in viscosity in %) [1]: 140%
- Viscosity, 7d [1]: 76 Pa*s
- 15 d (increase in viscosity in %) [1]: 292%
- Viscosity, 15 d [1]: 158 Pa*s
- solubility in water ([2]; at 25°C): 432 g/100g
- solubility in water ([2]; at 25°C, printed in brackets beside the g/100g value): 4320 g/L

Compound: [O]=[Zn] [ZnO, Zinc oxide]
- Viscosity, Initial [1]: 48 Pa*s
- 7d (increase in viscosity in %) [1]: 233%
- Viscosity, 7d [1]: 112 Pa*s
- 15 d (increase in viscosity in %) [1]: 17235%
- Viscosity, 15 d [1]: 8273 Pa*s
- solubility in water ([2]; at 17.8°C): solubility in water 0.0004% at 17.8 °C
